Assay results: US6156758A, “Antibacterial quinazoline compounds” (Isis Pharmaceuticals, Inc., priority 1999, dated 2000)
Converted amounts (≈) assume the structure as drawn.

Assays:
Assay type in all cases: cell-based
[1] = system: S. pyogenes; assay: MIC determination, initial screen, S. pyogenes; conditions: Streptococcus pyogenes, ATCC14289; Table 1; ATCC 14289 (initial screen); 24 h, A595
Source text: (§1) The Streptococcus pyogenes strains, Klebsiella pneumoniae, Escherichia coli, Staphylococcus aureus, Enterococcus faecalis used in the antibacterial activity studies ATCC 14289, 49399, 13883, 25922, 13709, 29212, respectively, were obtained from the American Type Culture Collection, Rockville, Md. The strain E. coli imp- is a mutant strain of wild type E. coli with increased outer membrane permeability. In initial screens, E. coli imp- and S. pyrogenes (ATCC 14289) were used. The E. coli imp-strain was grown in LB broth, and the S. pyogenes strain was grown in Todd-Hewitt broth. Interesting compounds were further evaluated in the tier II screens against other bacterial screens. S. aureus was grown in trypticase soy broth, E. faecalis in Todd-Hewitt broth, wild type E. coli and K. pneumoniae, in nutrient broth. All bacterial were grown at 37° C.
(§2) The assays were carried out in 150 μL volume in duplicate in 96-well clear flat-bottom plates. The bacterial suspension from an overnight culture growth in appropriate medium was added to a solution of test compound in 4% DMSO in water. Final bacterial inoculum was approximately 10^5 -10^6 CFU/well. The percent growth of the bacteria in test wells relative to that observed for a well containing no compound was determined by measuring absorbance at 595 nm (A595) after 24 h. […] Both ampicillin and tetracycline were used as antibiotic-positive controls in each screening assay for S. pyogenes, E. coli imp-, E. coli, S. aureus, E. faecalis, K. pneumoniae and P. vulgaris. Ciprofloxacin was used as an antibiotic positive control in each screening assay for P. aeruginosa.

[2] = system: E. coli imp-; assay: MIC determination, initial screen, E. coli imp-; conditions: Escherichia coli, 24 h, read-out: MIC E. coli imp
Source text: as §1, §2

[3] = system: K. pneumoniae; assay: MIC determination, tier II screen, K. pneumoniae (#13883); conditions: Klebsiella pneumoniae; Table 2; 24 h, A595
Source text: as §1, §2

[4] = system: S. pyogenes; assay: MIC determination, tier II screen, S. pyogenes (#49399); conditions: Streptococcus pyogenes; Table 2; 24 h, A595
Source text: as §1, §2

[5] = system: S. aureus; assay: MIC determination, tier II screen, S. aureus (#13709); conditions: Staphylococcus aureus; Table 2; 24 h, A595
Source text: as §1, §2

[6] = system: E. faecalis; assay: MIC determination, tier II screen, E. faecalis (#29212); conditions: Enterococcus faecalis; Table 2; 24 h, A595
Source text: as §1, §2

[7] = system: E. coli; assay: MIC determination, tier II screen, wild type E. coli (#25922); conditions: Escherichia coli, Table 2, 24 h, A595
Source text: as §1, §2

`COC(=O)c1nc(Cl)c(NC2CCN(c3nc(N)c4cc(OC)c(OC)cc4n3)CC2)nc1N` [Compound 1, 3-Amino-5-[1-(4-amino-6,7-dimethoxy-quinazolin-2-yl)-piperidin-4-ylamino]-6-chloro-pyrazine-2-carboxylic acid methyl ester] was tested, and the MIC [1] was 12 to 25 µM (≈ 5.87 to 12.2 µg/mL) and the MIC [2] was > 25 µM.

For `COC(=O)c1ncc(NC2CCN(c3nc(N)c4cc(OC)c(OC)cc4n3)CC2)nc1N` [Compound 2, 3-Amino-5-[1-(4-amino-6,7-dimethoxy-quinazolin-2-yl)-piperidin-4-ylamino]-pyrazine-2-carboxylic acid methyl ester], the MIC [1] was > 50 µM and the MIC [2] was > 50 µM.

`COC(=O)c1ccc(NC2CCN(c3nc(N)c4cc(OC)c(OC)cc4n3)CC2)nc1` [Compound 3, 6-[1-(4-Amino-6,7-dimethoxy-quinazolin-2-yl)-piperidin-4-ylamino]-nicotinicacid methyl ester] was tested, and the MIC [1] was 25 to 50 µM (≈ 11 to 21.9 µg/mL) and the MIC [2] was > 50 µM.

For `COC(=O)c1ccc(NC2CCN(c3nc(N)c4cc(OC)c(OC)cc4n3)CC2)cc1` [Compound 4, 4-[1-(4-Amino-6,7-dimethoxy-quinazolin-2-yl)-piperidin-4-ylamino]-benzoic acid methyl ester], the MIC [3] was > 100 µM, the MIC [4] was 5 to 25 µM (≈ 2.19 to 10.9 µg/mL) and the MIC [1] was 5 to 25 µM (≈ 2.19 to 10.9 µg/mL). The MIC [5] was > 100 µM, the MIC [6] was 20 to 40 µM (≈ 8.75 to 17.5 µg/mL) and the MIC [2] was 5 to 25 µM (≈ 2.19 to 10.9 µg/mL). The MIC [7] was > 100 µM.

`COc1cc2nc(N3CCC(Nc4ccc(C(=O)OC(C)(C)C)cc4)CC3)nc(N)c2cc1OC` [Compound 5, 4-[1-(4-Amino-6,7-dimethoxy-quinazolin-2-yl)-piperidin-4-ylamino]-benzoic acid tert-butyl ester] was tested, and the MIC [3] was > 100 µM, the MIC [4] was 6 to 12 µM (≈ 2.88 to 5.75 µg/mL) and the MIC [1] was 3 to 6 µM (≈ 1.44 to 2.88 µg/mL). The MIC [5] was > 100 µM, the MIC [6] was 6 to 12 µM (≈ 2.88 to 5.75 µg/mL) and the MIC [2] was 6 to 12 µM (≈ 2.88 to 5.75 µg/mL). For the same compound, the MIC [7] was > 100 µM.

`COc1cc2nc(N3CCC(Nc4ccc(C(=O)OC(C)(C)C)cc4[N+](=O)[O-])CC3)nc(N)c2cc1OC` [Compound 6, 4-[1-(4-Amino-6,7-dimethoxyquinazolin-2-yl)piperidin-4-ylamino]-3-nitrobenzoic acid tert-butyl ester] showed an MIC [1] of 50 to 100 µM (≈ 26.2 to 52.5 µg/mL) and an MIC [2] of 25 to 50 µM (≈ 13.1 to 26.2 µg/mL).

`COc1cc2cnc(N3CCC(Nc4ccc(C(=O)OC(C)(C)C)cc4)CC3)nc2cc1OC` [Compound 13, 4-[1-(6,7-Dimethoxyquinazolin-2-yl)piperidin-4-ylamino]benzoic acid tert-butyl ester] was tested, and the MIC [1] was > 20 µM and the MIC [2] was > 20 µM.

With `COc1cc2nc(N3CCC(Nc4ccc(C(=O)OC(C)(C)C)cc4)CC3)nc(OC)c2cc1OC` [Compound 14, 4-[1-(4,6,7-Trimethoxyquinazolin-2-yl)piperidin-4-ylamino]benzoic acid tert-butyl ester] the MIC [1] was < 100 µM and the MIC [2] was < 100 µM.

`COc1cc2nc(N3CCC(Nc4ccc(C(=O)OC(C)(C)C)cc4)CC3)[nH]c(=O)c2cc1OC` [Compound 15, 4-[1-(6,7-Dimethoxy-4-oxo-3,4-dihydroquinazolin-2-yl)piperidin-4-ylamino]benzoic acid tert-butyl ester] was tested, and the MIC [1] was > 100 µM and the MIC [2] was > 100 µM.

`COc1cc2nc(N3CCC(Nc4ccc(C(=O)OC(C)(C)C)cc4)CC3)nc(Nc3ccc(C)cc3)c2cc1OC` [Compound 16, 4-[1-(6,7-Dimethoxy-4-p-tolylaminoquinazolin-2-yl)piperidin-4-ylamino]benzoic acid tert-butyl ester] showed an MIC [1] of 2.5 to 5 µM (≈ 1.42 to 2.85 µg/mL) and an MIC [2] of 10 to 20 µM (≈ 5.7 to 11.4 µg/mL).

For `CC(C)(C)OC(=O)c1ccc(NC2CCN(c3nc(N)c4ccccc4n3)CC2)cc1` [Compound 17, 4-[1-(4-Aminoquinazolin-2-yl)piperidin-4-ylamino]benzoic acid tert-butyl ester], the MIC [1] was < 100 µM and the MIC [2] was < 100 µM.

With `COc1cc2nc(N3CCC(Nc4nc(N)c(C(=O)O)nc4Cl)CC3)nc(N)c2cc1OC` [Compound 18, 3-Amino-5-[1-(4-amino-6,7-dimethoxyquinazolin-2-yl)piperidin-4-ylamino]-6-chloropyrazine-2-carboxylic acid] the MIC [1] was > 100 µM and the MIC [2] was > 100 µM.

`COc1cc2nc(N3CCC(Nc4cnc(C(=O)O)c(N)n4)CC3)nc(N)c2cc1OC` [Compound 19, 3-Amino-5-[1-(4-amino-6,7-dimethoxyquinazolin-2-yl)piperidin-4-ylamino]pyrazine-2-carboxylic acid] was tested, and the MIC [1] was > 25 µM and the MIC [2] was > 25 µM.

With `COc1cc2nc(N3CCC(Nc4ccc(C(=O)O)cn4)CC3)nc(N)c2cc1OC` [Compound 20, 6-[1-(4-Amino-6,7-dimethoxyquinazolin-2-yl)piperidin-4-ylamino]nicotinic acid] the MIC [1] was > 20 µM and the MIC [2] was > 50 µM.

`COc1cc2nc(N3CCC(Nc4ccc(C(=O)O)cc4[N+](=O)[O-])CC3)nc(N)c2cc1OC` [Compound 21, 4-[1-(4-Amino-6,7-dimethoxyquinazolin-2-yl)piperidin-4-ylamino]-3-nitrobenzoic acid] was tested, and the MIC [1] was > 20 µM and the MIC [2] was > 20 µM.

`COc1cc2nc(N3CCC(Nc4ccc(C(=O)O)cc4)CC3)nc(N)c2cc1OC` [Compound 22, 4-[1-(4-Amino-6,7-dimethoxyquinazolin-2-yl)piperidin-4-ylamino]benzoic acid] was tested, and the MIC [3] was 6 to 12 µM (≈ 2.54 to 5.08 µg/mL), the MIC [4] was > 25 µM and the MIC [1] was > 25 µM. The MIC [5] was 6 to 12 µM (≈ 2.54 to 5.08 µg/mL), the MIC [6] was > 100 µM and the MIC [2] was 0.4 to 2 µM (≈ 0.169 to 0.847 µg/mL). For the same compound, the MIC [7] was 60 to 80 µM (≈ 25.4 to 33.9 µg/mL).

In the case of `COc1cc2cnc(N3CCC(Nc4ccc(C(=O)O)cc4)CC3)nc2cc1OC` [Compound 28, 4-[1-(6,7-Dimethoxyquinazolin-2-yl)piperidin-4-ylamino]benzoic acid], the MIC [1] is reported as > 20 µM and the MIC [2] is reported as > 20 µM.

With `COc1cc2nc(N3CCC(Nc4ccc(C(=O)O)cc4)CC3)nc(OC)c2cc1OC` [Compound 29, 4-[1-(4,6,7-Trimethoxyquinazolin-2-yl)piperidin-4-ylamino]benzoic acid] the MIC [1] was > 20 µM and the MIC [2] was > 20 µM.

With `COc1cc2nc(N3CCC(Nc4ccc(C(=O)O)cc4)CC3)[nH]c(=O)c2cc1OC` [Compound 30, 4-[1-(6,7-Dimethoxy-4-oxo-3,4-dihydroquinazolin-2-yl)piperidin-4-ylamino]benzoic acid] the MIC [1] was > 20 µM and the MIC [2] was > 20 µM.

With `COc1cc2nc(N3CCC(Nc4ccc(C(=O)O)cc4)CC3)nc(Nc3ccc(C)cc3)c2cc1OC` [Compound 31, 4-[1-(6,7-Dimethoxy-4-p-tolylaminoquinazolin-2-yl)piperidin-4-ylamino]benzoic acid] the MIC [1] was > 20 µM and the MIC [2] was > 20 µM.

For `Nc1nc(N2CCC(Nc3ccc(C(=O)O)cc3)CC2)nc2ccccc12` [Compound 32, 4-[1-(4-Aminoquinazolin-2-yl)piperidin-4-ylamino]benzoic acid], the MIC [1] was > 100 µM and the MIC [2] was > 100 µM.
